Assay results from patent US20260008768A1, “UREA DERIVATIVES FOR INHIBITING NLRP3 AND USES THEREOF” (VENTUS THERAPEUTICS U.S., INC., priority 2023, published 2026).

target: human NLRP3 (Homo sapiens, UniProt Q96P20); test: Scintillation Proximity (SPA) NLRP3 Assay, displacement of 3H-MCC950; type: binding; conditions: Table B, activity class; displacement of 3H-MCC950 from human NLRP3
Protocol: Improved NLRP3 binding correlates with increased affinity for NLRP3 protein and, by extension, increased ability to interfere with its function.
SPA experiments were conducted in a total volume of 20 μL assay buffer containing 20 mM HEPES pH 7.5, 150 mM NaCl, 5 mM MgCl2, 0.01% (v/v) Tween-20, 0.01% (w/v) bovine serum albumin (BSA) and 100 μM of adenosine diphosphate (ADP). A human NLRP3 protein (350 nM) (see, e.g., Sharif et al., Nature (2019) 570:338-343; Hochheiser et al., Nature (2022) 604:184-189; Adreeva et al., Cell (2021) 184:6299-6312; Wang et al., J Exp. Med. (2021) 219:e20211147) was incubated with various concentration of compounds in 5% dimethyl sulfoxide (DMSO) final for 15 minutes at room temperature in a white half-area 96 well OptiPlate (PerkinElmer #6002290) before adding 125 nM final of 3H-MCC950. After the addition of radiolabeled MCC950, the plate was incubated for 60 minutes at room temperature before adding 0.25 mg/ml of copper-coated polyvinyltoluene SPA beads (PerkinElmer #RPNQ0095). The plate was then transferred to a microplate counter (PerkinElmer 2450 Microbeta) to collect binding data. Binding data was analyzed 6 hrs post-PVT bead addition to allow sufficient time to reach equilibrium. Specific binding was calculated from averaged duplicates by subtracting signal from wells without NLRP3 protein.
SPA NLRP3 IC50 assay results are provided in Table B. “A” activity=<1 uM; “B” activity=1-10 uM; “C” activity=>10-50 uM; “D” activity=>50 uM-100 uM; and “E” activity=>100 uM.

human NLRP3, sequence (Q96P20 whole entry): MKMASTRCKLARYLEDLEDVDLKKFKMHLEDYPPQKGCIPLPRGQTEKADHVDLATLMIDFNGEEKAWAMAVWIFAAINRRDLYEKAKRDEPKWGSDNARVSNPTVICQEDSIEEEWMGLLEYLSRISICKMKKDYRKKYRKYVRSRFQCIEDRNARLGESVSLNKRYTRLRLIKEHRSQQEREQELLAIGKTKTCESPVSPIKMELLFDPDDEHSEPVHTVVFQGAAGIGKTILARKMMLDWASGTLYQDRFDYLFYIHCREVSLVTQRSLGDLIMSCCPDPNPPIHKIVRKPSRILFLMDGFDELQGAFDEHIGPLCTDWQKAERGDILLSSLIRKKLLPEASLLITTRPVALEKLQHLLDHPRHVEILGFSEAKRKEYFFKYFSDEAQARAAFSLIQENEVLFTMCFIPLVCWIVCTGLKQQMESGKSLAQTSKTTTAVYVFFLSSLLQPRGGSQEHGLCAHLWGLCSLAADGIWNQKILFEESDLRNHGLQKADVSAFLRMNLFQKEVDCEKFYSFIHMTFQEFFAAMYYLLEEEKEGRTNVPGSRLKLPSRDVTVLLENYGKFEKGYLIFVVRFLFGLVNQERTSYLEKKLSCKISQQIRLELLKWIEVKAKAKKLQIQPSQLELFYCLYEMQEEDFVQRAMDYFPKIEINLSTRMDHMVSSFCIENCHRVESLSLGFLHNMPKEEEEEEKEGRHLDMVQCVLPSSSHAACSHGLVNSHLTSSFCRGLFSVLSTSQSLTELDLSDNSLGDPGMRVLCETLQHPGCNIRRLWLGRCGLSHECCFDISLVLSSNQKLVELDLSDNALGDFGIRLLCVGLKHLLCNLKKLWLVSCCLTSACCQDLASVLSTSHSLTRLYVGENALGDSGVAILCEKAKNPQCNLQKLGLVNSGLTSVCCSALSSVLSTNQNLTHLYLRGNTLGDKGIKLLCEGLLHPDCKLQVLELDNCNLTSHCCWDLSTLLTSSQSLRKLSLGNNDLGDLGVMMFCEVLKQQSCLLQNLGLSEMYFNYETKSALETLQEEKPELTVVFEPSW

First: C[C@@H]1CCN(c2nnn[nH]2)C[C@@H](NC(=O)N(C)c2ccc(Cl)cc2)C1 (single isomer, unassigned) [4B*]
Second: C[C@H]1CCN(c2nnn[nH]2)C[C@H](NC(=O)N(C)c2ccc(Cl)cc2)C1 (single isomer, unassigned) [4C*]
The IC50 of the first is lower: 1 to 10 µM for the first, 50 to 100 µM for the second.

`CC1CCN(c2nnn[nH]2)CC(NC(=O)N(C)c2ccc(Cl)cc2)C1` (single isomer, unassigned) [4D*] and `C[C@@H]1CCN(c2nnn[nH]2)C[C@@H](NC(=O)N(C)c2ccc(C3CC3)cc2)C1` (single isomer, unassigned) [8B*] fall in the same range of IC50: 1 to 10 µM for the first, 1 to 10 µM for the second.

First: C[C@@H]1CCN(c2nnn[nH]2)C[C@@H](NC(=O)N(C)c2ccc(Cl)cc2F)C1 (single isomer, unassigned) [5B*]
Second: C[C@H]1CCN(c2nnn[nH]2)C[C@H](NC(=O)N(C)c2ccc(Cl)cc2F)C1 (single isomer, unassigned) [5C*]
The IC50 of the first is lower: 1 to 10 µM for the first, 50 to 100 µM for the second. The first is the more potent here.

`C[C@H]1CCN(c2nnn[nH]2)C[C@@H](NC(=O)N(C)c2ccc(Cl)cc2F)C1` (single isomer, unassigned) [5D*] and `C[C@@H]1CCN(c2nnn[nH]2)C[C@@H](NC(=O)N(C)c2ccc(Cl)cc2Cl)C1` (single isomer, unassigned) [7B*] fall in the same range of IC50: 1 to 10 µM for the first, 1 to 10 µM for the second.

Compared with `C[C@H]1CCN(c2nnn[nH]2)C[C@H](NC(=O)N(C)c2ccc(Cl)cc2Cl)C1` (single isomer, unassigned) [7C*], `C[C@H]1CCN(c2nnn[nH]2)C[C@@H](NC(=O)N(C)c2ccc(Cl)cc2Cl)C1` (single isomer, unassigned) [7D*] is lower in IC50: 50 to 100 µM for the first, 10 to 50 µM for the second. The second is the more potent here.

First: C[C@H]1CCN(c2nnn[nH]2)C[C@H](NC(=O)N(C)c2ccc(C3CC3)cc2)C1 (single isomer, unassigned) [8C*]
Second: C[C@H]1CCN(c2nnn[nH]2)C[C@@H](NC(=O)N(C)c2ccc(C3CC3)cc2)C1 (single isomer, unassigned) [8D*]
The IC50 of the first is higher: > 100 µM for the first, 1 to 10 µM for the second. The second is the more potent here.

First: C[C@@H]1CCN(c2nnn[nH]2)C[C@@H](NC(=O)N(C)c2ccc(C(F)(F)F)c(F)c2)C1 (single isomer, unassigned) [9B*]
Second: C[C@H]1CCN(c2nnn[nH]2)C[C@H](NC(=O)N(C)c2ccc(C(F)(F)F)c(F)c2)C1 (single isomer, unassigned) [9C*]
The IC50 of the first is lower: 1 to 10 µM for the first, > 100 µM for the second. The first is the more potent here.

Compared with `C[C@@H]1CCN(c2nnn[nH]2)C[C@@H](NC(=O)N(C)c2ccc(OC(F)(F)F)cc2)C1` (single isomer, unassigned) [10B*], `C[C@H]1CCN(c2nnn[nH]2)C[C@H](NC(=O)N(C)c2ccc(OC(F)(F)F)cc2)C1` (single isomer, unassigned) [10C*] is higher in IC50: 1 to 10 µM for the first, > 100 µM for the second. The first is the more potent here.

`C[C@H]1CCN(c2nnn[nH]2)C[C@@H](NC(=O)N(C)c2ccc(OC(F)(F)F)cc2)C1` (single isomer, unassigned) [10D*] and `C[C@@H]1CCN(c2nnn[nH]2)C[C@@H](NC(=O)N(C)c2ccc(OC(F)F)cc2)C1` (single isomer, unassigned) [11B*] fall in the same range of IC50: 1 to 10 µM for the first, 1 to 10 µM for the second.

First: C[C@H]1CCN(c2nnn[nH]2)C[C@H](NC(=O)N(C)c2ccc(OC(F)F)cc2)C1 (single isomer, unassigned) [11C*]
Second: C[C@H]1CCN(c2nnn[nH]2)C[C@@H](NC(=O)N(C)c2ccc(OC(F)F)cc2)C1 (single isomer, unassigned) [11D*]
The IC50 of the first is higher: 50 to 100 µM for the first, 1 to 10 µM for the second.

Compared with `C[C@@H]1CCN(c2nnn[nH]2)C[C@@H](NC(=O)N(C)c2ccc(Cl)c(F)c2)C1` (single isomer, unassigned) [12B*], `C[C@H]1CCN(c2nnn[nH]2)C[C@H](NC(=O)N(C)c2ccc(Cl)c(F)c2)C1` (single isomer, unassigned) [12C*] is higher in IC50: 1 to 10 µM for the first, 10 to 50 µM for the second.

Compared with `C[C@H]1CCN(c2nnn[nH]2)C[C@@H](NC(=O)N(C)c2ccc(Cl)c(F)c2)C1` (single isomer, unassigned) [12D*], `C[C@@H]1CCN(c2nnn[nH]2)C[C@@H](NC(=O)N(C)c2ccc(C(F)F)c(F)c2)C1` (single isomer, unassigned) [22B*] is lower in IC50: > 100 µM for the first, 1 to 10 µM for the second.

First: C[C@@H]1CCN(c2nnn[nH]2)C[C@@H](NC(=O)N(C)c2ccc(C(F)(F)F)cc2F)C1 (single isomer, unassigned) [13B*]
Second: C[C@H]1CCN(c2nnn[nH]2)C[C@H](NC(=O)N(C)c2ccc(C(F)(F)F)cc2F)C1 (single isomer, unassigned) [13C*]
The IC50 of the first is lower: 1 to 10 µM for the first, > 100 µM for the second. The first is the more potent here.

`C[C@H]1CCN(c2nnn[nH]2)C[C@@H](NC(=O)N(C)c2ccc(C(F)(F)F)cc2F)C1` (single isomer, unassigned) [13D*] and `C[C@@H]1CCN(c2nnn[nH]2)C[C@@H](NC(=O)N(C)c2ccc(C(F)F)cc2F)C1` (single isomer, unassigned) [18B*] fall in the same range of IC50: 1 to 10 µM for the first, 1 to 10 µM for the second.

First: C[C@@H]1CCN(c2nnn[nH]2)C[C@@H](NC(=O)N(C)c2ccc(OC(F)(F)F)c(F)c2)C1 (single isomer, unassigned) [14B*]
Second: C[C@H]1CCN(c2nnn[nH]2)C[C@H](NC(=O)N(C)c2ccc(OC(F)(F)F)c(F)c2)C1 (single isomer, unassigned) [14C*]
The IC50 of the first is lower: 1 to 10 µM for the first, > 100 µM for the second. The first is the more potent here.

First: C[C@H]1CCN(c2nnn[nH]2)C[C@@H](NC(=O)N(C)c2ccc(OC(F)(F)F)c(F)c2)C1 (single isomer, unassigned) [14D*]
Second: C[C@@H]1CCN(c2nnn[nH]2)C[C@@H](NC(=O)N(C)c2ccc(OC(F)F)c(F)c2)C1 (single isomer, unassigned) [15B*]
The IC50 of the first is higher: 10 to 50 µM for the first, 1 to 10 µM for the second. The second is the more potent here.

First: C[C@H]1CCN(c2nnn[nH]2)C[C@H](NC(=O)N(C)c2ccc(OC(F)F)c(F)c2)C1 (single isomer, unassigned) [15C*]
Second: C[C@H]1CCN(c2nnn[nH]2)C[C@@H](NC(=O)N(C)c2ccc(OC(F)F)c(F)c2)C1 (single isomer, unassigned) [15D*]
The IC50 of the first is higher: > 100 µM for the first, 1 to 10 µM for the second. The second is the more potent here.

Compared with `C[C@@H]1CCN(c2nnn[nH]2)C[C@@H](NC(=O)N(C)c2ccc(OC(F)F)c(OC(F)F)c2)C1` (single isomer, unassigned) [16B*], `C[C@H]1CCN(c2nnn[nH]2)C[C@H](NC(=O)N(C)c2ccc(OC(F)F)c(OC(F)F)c2)C1` (single isomer, unassigned) [16C*] is higher in IC50: 1 to 10 µM for the first, 50 to 100 µM for the second. The first is the more potent here.

First: C[C@H]1CCN(c2nnn[nH]2)C[C@@H](NC(=O)N(C)c2ccc(OC(F)F)c(OC(F)F)c2)C1 (single isomer, unassigned) [16D*]
Second: C[C@H]1CCN(c2nnn[nH]2)C[C@H](NC(=O)N(C)c2ccc(C(F)F)c(F)c2)C1 (single isomer, unassigned) [22C*]
The IC50 of the first is lower: 1 to 10 µM for the first, 10 to 50 µM for the second.

`C[C@@H]1CCN(c2nnn[nH]2)C[C@@H](NC(=O)N(C)c2ccc(OC(F)F)cc2F)C1` (single isomer, unassigned) [17B*] and `C[C@H]1CCN(c2nnn[nH]2)C[C@H](NC(=O)N(C)c2ccc(OC(F)F)cc2F)C1` (single isomer, unassigned) [17C*] fall in the same range of IC50: 1 to 10 µM for the first, 1 to 10 µM for the second.

First: C[C@H]1CCN(c2nnn[nH]2)C[C@@H](NC(=O)N(C)c2ccc(OC(F)F)cc2F)C1 (single isomer, unassigned) [17D*]
Second: C[C@H]1CCN(c2nnn[nH]2)C[C@H](NC(=O)N(C)c2ccc(C(F)F)cc2F)C1 (single isomer, unassigned) [18C*]
The IC50 of the first is higher: > 100 µM for the first, 10 to 50 µM for the second. The second is the more potent here.

First: C[C@H]1CCN(c2nnn[nH]2)C[C@@H](NC(=O)N(C)c2ccc(C(F)F)cc2F)C1 (single isomer, unassigned) [18D*]
Second: C[C@H]1CCN(c2nnn[nH]2)C[C@@H](NC(=O)N(C)c2ccc(C(F)F)c(F)c2)C1 (single isomer, unassigned) [22D*]
The IC50 of the first is higher: 10 to 50 µM for the first, 1 to 10 µM for the second.

First: C[C@@H]1CCN(c2nnn[nH]2)C[C@@H](NC(=O)N(C)c2c(F)cc(OC(F)F)cc2F)C1 (single isomer, unassigned) [19B*]
Second: C[C@H]1CCN(c2nnn[nH]2)C[C@H](NC(=O)N(C)c2c(F)cc(OC(F)F)cc2F)C1 (single isomer, unassigned) [19C*]
The IC50 of the first is lower: 1 to 10 µM for the first, > 100 µM for the second. The first is the more potent here.

`C[C@H]1CCN(c2nnn[nH]2)C[C@@H](NC(=O)N(C)c2c(F)cc(OC(F)F)cc2F)C1` (single isomer, unassigned) [19D*] and `C[C@@H]1CCN(c2nnn[nH]2)C[C@@H](NC(=O)N(C)c2c(F)cc(C3CC3)cc2F)C1` (single isomer, unassigned) [20B*] fall in the same range of IC50: 1 to 10 µM for the first, 1 to 10 µM for the second.

First: C[C@H]1CCN(c2nnn[nH]2)C[C@H](NC(=O)N(C)c2c(F)cc(C3CC3)cc2F)C1 (single isomer, unassigned) [20C*]
Second: C[C@H]1CCN(c2nnn[nH]2)C[C@@H](NC(=O)N(C)c2c(F)cc(C3CC3)cc2F)C1 (single isomer, unassigned) [20D*]
The IC50 of the first is higher: 10 to 50 µM for the first, 1 to 10 µM for the second.

First: C[C@@H]1CCN(c2nnn[nH]2)C[C@@H](NC(=O)N(C)c2ccc(C(F)(F)F)c(F)c2F)C1 (single isomer, unassigned) [21B*]
Second: C[C@H]1CCN(c2nnn[nH]2)C[C@H](NC(=O)N(C)c2ccc(C(F)(F)F)c(F)c2F)C1 (single isomer, unassigned) [21C*]
The IC50 of the first is lower: 1 to 10 µM for the first, > 100 µM for the second.

`C[C@H]1CCN(c2nnn[nH]2)C[C@@H](NC(=O)N(C)c2ccc(C(F)(F)F)c(F)c2F)C1` (single isomer, unassigned) [21D*] was tested, and the IC50 was 1 to 10 µM.
